# Experimental data as given in patent US20180325793A1, “HIGH-PERFORMANCE COSMETIC PRODUCTS CONTAINING A POLYORGANOSILOXANE AND A DIPEPTIDE” (Evonik Degussa GmbH, priority 2014, published 2018).
# Where a SMILES comes first, the peptide text is derived from it.
# Assay: solubility in water at room temperature
# Type: physicochemical
# From the text: The two pairs DD/LL-methionylmethionine and DL/LD-methionylmethionine are diastereomeric relative to one another and have different physical data. […] These mixtures can be incorporated/dissolved simply in an aqueous phase or an aqueous surfactant phase of a cosmetic composition.
row,solubility at room temperature in water,Compound
1,21.0 mg/mL,"CSCC[C@H](NC(=O)[C@@H](N)CCSC)C(=O)O [DD/LL-methionylmethionine, methionylmethionine] (H-Met-Met-OH)"
2,0.4 mg/mL,"CSCC[C@H](NC(=O)[C@@H](N)CCSC)C(=O)O [DL/LD-methionylmethionine, methionylmethionine] (H-Met-Met-OH)"
